Source: US20230066946A1, “1,5-DIPHENYLPYRAZOLYL-3-OXYALKYL ACIDS AND 1-PHENYL-5-THIENYLPYRAZOLYL-3-OXYALKYL ACIDS AND THE USE THEREOF FOR CONTROL OF UNWANTED PLANT GROWTH” (Bayer Aktiengesellschaft, priority 2019, published 2023)

Legend:
VIOTR [1] = assay: Pre-emergence herbicidal action against VIOTR; assay type: in vivo, Viola tricolor; settings: 1280 g/ha, scored visually after about 3 weeks vs untreated controls
Excerpt: (§1) Seeds of mono- and dicotyledonous weed plants are placed in plastic pots in sandy loam soil (doubly sown with one species each of mono- or dicotyledonous weed plants per pot) and covered with soil. The compounds of the invention, formulated in the form of wettable powders (WP) or as emulsion concentrates (EC), are then applied onto the surface of the covering soil as aqueous suspension or emulsion with addition of 0.5% additive at a water application rate equivalent to 600 litres per hectare. After the treatment, the pots are placed in a greenhouse and kept under good growth conditions for the trial plants. After about 3 weeks, the effect of the preparations is scored visually in comparison with untreated controls as percentages. For example, 100% activity=the plants have died, 0% activity=like control plants. [table] Tables 4.1-4.15 below show the effects of selected compounds of the general formula (I) according to Tables 1 to 3 on various harmful plants at an application rate corresponding to 1280 or 320 g/ha, which have been obtained by the aforementioned experimental method.

MATIN [2] = assay: Post-emergence herbicidal action against MATIN; assay type: in vivo, Matricaria inodora; settings: visual rating about 3 weeks after treatment
Outline: (§2)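 Rates of 1280 or 320 g/ha were sprayed onto green parts of one-leaf-stage plants grown in sandy loam pots, with 0.5% additive and 600 litres per hectare water. After about 3 weeks under optimum greenhouse conditions, activity is rated visually: 100% = dead plants, 0% = as control.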

AMARE [3] = assay: Pre-emergence herbicidal action against AMARE; assay type: in vivo, Amaranthus retroflexus; settings: scored visually after about 3 weeks vs untreated controls; for Pre-emergence action against AMARE in %: 1280 g/ha; for Pre-emergence action at 320 g/ha against AMARE in %: 100% = plants have died, 0% = like control plants
Outline: (§3)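 Greenhouse pot test on sown, soil-covered weed seeds; spray of WP or EC formulation at 1280 or 320 g/ha onto covering soil. Effect rated visually after about 3 weeks (0% = like control, 100% = dead).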

SETVI [4] = assay: Post-emergence herbicidal action against SETVI; assay type: in vivo, Setaria viridis; settings: 1280 g/ha, post-emergence at one-leaf stage, rated visually after about 3 weeks vs untreated controls
Outline: as §2

VIOTR [5] = assay: Post-emergence herbicidal action against VIOTR; assay type: in vivo, Viola tricolor; settings: 320 g/ha, visual rating about 3 weeks after treatment
Outline: as §2

SETVI [6] = assay: Pre-emergence herbicidal action against SETVI; assay type: in vivo, Setaria viridis; settings: 1280 g/ha, scored visually after about 3 weeks vs untreated controls
Outline: as §3

STEME [7] = assay: Pre-emergence herbicidal action against STEME; assay type: in vivo, Stellaria media; settings: scored visually after about 3 weeks vs untreated controls
Outline: as §3

ECHCG [8] = assay: Post-emergence herbicidal action against ECHCG; assay type: in vivo, Echinochloa crus-galli; settings: 1280 g/ha, post-emergence at one-leaf stage, rated visually after about 3 weeks vs untreated controls
Outline: as §2

VERPE [9] = assay: Post-emergence herbicidal action against VERPE; assay type: in vivo, Veronica persica; settings: 320 g/ha, visual rating about 3 weeks after treatment
Outline: as §2

ECHCG [10] = assay: Pre-emergence herbicidal action against ECHCG; assay type: in vivo, Echinochloa crus-galli; settings: scored visually after about 3 weeks vs untreated controls, 100% = plants have died, 0% = like control plants
Outline: as §3

POLCO [11] = assay: Pre-emergence herbicidal action against POLCO; assay type: in vivo, Polygonum convolvulus; settings: 320 g/ha, scored visually after about 3 weeks vs untreated controls
Excerpt: as §1

POLCO [12] = assay: Post-emergence herbicidal action against POLCO; assay type: in vivo, Polygonum convolvulus; settings: 320 g/ha, visual rating about 3 weeks after treatment
Outline: as §2

PHBPU = assay: Post-emergence herbicidal action against PHBPU; assay type: in vivo, Pharbitis purpurea; settings: 320 g/ha, visual rating about 3 weeks after treatment
Outline: as §2

AMARE [13] = assay: Post-emergence herbicidal action against AMARE; assay type: in vivo, Amaranthus retroflexus; settings: visual rating about 3 weeks after treatment
Outline: as §2

HORMU = assay: Post-emergence herbicidal action against HORMU; assay type: in vivo, Hordeum murinum; settings: 320 g/ha, visual rating about 3 weeks after treatment
Method: (§4) [table] Seeds of mono- and dicotyledonous weed plants are placed in plastic pots in sandy loam soil (twin sowing with one species each of mono- or dicotyledonous weed plants per pot), covered with soil and cultivated in a greenhouse under controlled growth conditions. 2 to 3 weeks after sowing, the test plants are treated at the one-leaf stage. The compounds of the invention, formulated in the form of wettable powders (WP) or as emulsion concentrates (EC), are applied to the green parts of the plants as aqueous suspension or emulsion with addition of 0.5% additive at a water application rate equivalent to 600 litres per hectare. After the test plants have been kept in the greenhouse under optimum growth conditions for about 3 weeks, the activity of the preparations is rated visually in comparison to untreated controls. For example, 100% activity=the plants have died, 0% activity=like control plants. Tables 5.1-5.16 below show the effects of selected compounds of the general formula (I) according to Tables 1 to 3 on various harmful plants at an application rate corresponding to 1280 or 320 g/ha, which have been obtained by the aforementioned experimental method.

VERPE [14] = assay: Pre-emergence herbicidal action against VERPE; assay type: in vivo, Veronica persica; settings: 320 g/ha, scored visually after about 3 weeks vs untreated controls
Outline: as §3

STEME [15] = assay: Post-emergence herbicidal action against STEME; assay type: in vivo, Stellaria media; settings: visual rating about 3 weeks after treatment
Outline: as §2

harmful plants = assay: Post-emergence herbicidal action, summary of Tables 5.1-5.16; assay type: in vivo; settings: result in words
Method: as §4, with “Seeds” for “[table] Seeds”, “method. As the results from Tables 5.1-5.16 show, compounds of the invention have good herbicidal post-emergence efficacy against a broad spectrum of weed grasses and weeds. […] For example, compounds Nos. I-002, I-006, I-022, I-056 and I-072 applied by the post-emergence method have very good herbicidal action (80% to 100% herbicidal action) against harmful plants such as Alopecurus myosuroides, Amaranthus retroflexus, Matricaria inodora, Setaria viridis, Pharbitis purpurea and Stellaria media at an application rate of 1.28 kg of active substance or less per hectare.” for “method.”

ALOMY = assay: Post-emergence herbicidal action against ALOMY; assay type: in vivo, Alopecurus myosuroides; settings: 1280 g/ha, post-emergence at one-leaf stage, rated visually after about 3 weeks vs untreated controls
Method: as §4

MATIN [16] = assay: Pre-emergence herbicidal action against MATIN; assay type: in vivo, Matricaria inodora; settings: 1280 g/ha, scored visually after about 3 weeks vs untreated controls
Excerpt: as §1

Row | SMILES | Pre-emergence action against VIOTR in % (VIOTR [1]) | Post-emergence action against MATIN in % (MATIN [2]; 1280 g/ha) | Pre-emergence action against AMARE in % (AMARE [3]) | Post-emergence action against SETVI in % (SETVI [4]) | Post-emergence action against VIOTR in % (VIOTR [5]) | Pre-emergence action against SETVI in % (SETVI [6]) | Pre-emergence action against STEME in % (STEME [7]; 1280 g/ha) | Post-emergence action against ECHCG in % (ECHCG [8]) | Post-emergence action against VERPE in % (VERPE [9]) | Pre-emergence action at 1280 g/ha against ECHCG in % (ECHCG [10]) | Pre-emergence action at 320 g/ha against AMARE in % (AMARE [3]) | Post-emergence action against POLCO in % (POLCO [12]) | Post-emergence action against PHBPU in % (PHBPU) | Post-emergence action against AMARE in % (AMARE [13]; 320 g/ha) | Post-emergence action against AMARE in % (AMARE [13]; 1280 g/ha) | Post-emergence action against HORMU in % (HORMU) | Pre-emergence action against STEME in % (STEME [7]; 320 g/ha) | Post-emergence action against STEME in % (STEME [15]; 320 g/ha) | Post-emergence action against STEME in % (STEME [15]; 1280 g/ha) | Post-emergence action against MATIN in % (MATIN [2]; 320 g/ha) | also measured
1 | C#Cc1c(OCC(=O)OC)nn(-c2ccccc2F)c1-c1ccccc1 [I-063] | 100% | 80% | 80% | 80% | 90% | 100% | 80% | – | – | – | – | – | – | – | – | – | – | – | – | – | –
2 | COC(=O)COc1nn(-c2ccccc2F)c(-c2ccc(F)c(F)c2)c1Br [I-055] | – | 100% | 100% | – | 100% | 100% | 100% | 100% | 80% | 100% | 100% | 80% | 80% | 90% | 90% | 80% | 100% | 80% | 100% | – | Pre-emergence action against POLCO in % (POLCO [11]): 90%; Pre-emergence action against VERPE in % (VERPE [14]): 90%
3 | COC(=O)CNC(=O)C(C)Oc1nn(-c2ccccc2)c(-c2ccc(F)cc2)c1Cl (stereo not shown) [III-058] | – | 100% | 100% | 100% | – | 90% | 100% | – | – | 90% | – | – | – | – | 90% | – | – | – | 100% | – | herbicidal efficacy against harmful plants when applied post-emergence (harmful plants): very good herbicidal efficacy
4 | COC(=O)[C@H](C)Oc1nn(-c2ccccc2)c(-c2ccc(F)cc2)c1C#N [I-141] | – | 90% | 100% | – | 90% | 100% | 90% | 100% | – | 100% | 90% | – | – | 90% | 90% | 80% | 80% | 90% | 90% | 80% | –
5 | COC(=O)COc1nn(-c2ccccc2)c(-c2ccc(F)cc2)c1C#N [I-014] | – | – | – | – | – | – | – | – | – | – | 100% | 80% | 80% | 80% | – | – | – | 80% | – | – | herbicidal efficacy against harmful plants when applied post-emergence (harmful plants): very good herbicidal efficacy; Pre-emergence action against VERPE in % (VERPE [14]): 100%
6 | C#Cc1c(OCC(=O)OC)nn(-c2ccccc2)c1-c1ccc(F)cc1 [I-066] | 90% | 80% | 100% | – | 80% | – | – | – | – | – | – | – | 90% | – | – | – | – | – | – | 80% | –
7 | O=C(O)COc1nn(-c2c(F)cccc2F)c(-c2ccc(F)c(F)c2)c1Br [I-137] | – | 90% | 100% | 90% | 80% | 100% | 100% | 100% | 90% | 100% | 90% | 90% | 90% | 80% | 90% | 80% | 90% | 90% | 100% | 80% | Pre-emergence action against POLCO in % (POLCO [11]): 100%; Pre-emergence action against VERPE in % (VERPE [14]): 90%
8 | COC(=O)COc1nn(-c2cccc(Cl)c2)c(-c2cccc(F)c2)c1C#N [I-046] | 90% | 80% | 90% | – | 80% | – | – | – | 80% | – | 90% | – | 80% | – | 80% | – | – | 80% | 80% | – | Post-emergence action against ALOMY in % (ALOMY): 80%; Pre-emergence action against MATIN in % (MATIN [16]): 90%
9 | CCOC(=O)COc1nn(-c2ccccc2F)c(-c2ccccc2)c1[N+](=O)[O-] [I-075] | – | – | – | – | 100% | – | – | – | 80% | – | – | 80% | 90% | – | – | 80% | 80% | – | – | 80% | Pre-emergence action against POLCO in % (POLCO [11]): 80%
10 | C1COCCN1.O=C(O)COc1nn(-c2cccc(F)c2)c(-c2ccccc2)c1I [II-04] | – | – | 100% | – | – | – | 100% | – | – | 100% | – | – | – | – | – | – | – | – | 100% | – | herbicidal efficacy against harmful plants when applied post-emergence (harmful plants): very good herbicidal efficacy
